Measured values published in PMC7941592 (Journal of natural products, 2021).
Where a SMILES comes first, the peptide text is derived from it. [ ]: non-standard residue; d: D form. The star is where a group is joined. X1 = CC(C)C[C@@H](C[N+]1=C2CCCN2CCC1)N*; dIva = CC[C@@](C)(N)C(=O)O; Pip = O=C(O)[C@@H]1CCCCN1; Aib = CC(C)(N)C(=O)O; βAla = NCCC(=O)O

How the values were obtained:
[1] = system: P. falciparum; conditions: read-out: EC50 against P. falciparum; cited from earlier work
[2] = system: multi-drug-resistant P. falciparum line Dd2; assay type: cell-based, Plasmodium falciparum

SMILES	EC50 [1] [µM]	antiplasmodial activity in words [2]
CC[C@H](C)[C@@H](C(=O)O[C@@H](CC(C)C)C(=O)N[C@@H](CC(C)C)C(=O)N[C@@H](C)/C=C/C(=O)N1C(=O)C=C(OC)[C@@H]1C)N(C)C [Gallinamide A]	8.4	
CC[C@@](C)(NC(=O)[C@H](CC(C)C)NC(=O)[C@H](C)NC(=O)C(C)(C)NC(=O)[C@@H]1CCCCN1C(=O)C(C)(C)NC(=O)C(C)(C)NC(=O)CNC(=O)CCNC(=O)[C@H](CC(C)C)NC(=O)C(C)(C)NC(=O)C(C)(C)NC(=O)[C@@H]1CCCCN1C(=O)C(C)(C)NC(=O)[C@@H]1CCCCN1C(C)=O)C(=O)N[C@@H](CC(C)C)C[N+]1=C2CCCN2CCC1 [efrapeptin F (53), efrapeptin F] (Ac-[Pip][Aib][Pip][Aib][Aib]L[βAla]G[Aib][Aib][Pip][Aib]AL[dIva]-X1; N-terminus and C-terminus assumed)		submicromolar
